Laboratory results from paper PMC7127386 (Antiviral Research, 2020).
Entries after “also recorded” stand apart in the source; their conditions may differ. Read-outs that look alike come from different tables or passages of the source.

How the values were obtained:
[1] = test system: SARS-CoV-2 virus; assay type: cell-based
[2] = test system: SARS-CoV-2 virus; assay type: cell-based; remark: listed apart in the source
[3] = test system: Vero E6 cells
[4] = test system: SARS-CoV-2 virus; assay type: cell-based; details: read-out: Reduction in viral RNA copy (EC50)
[5] = test system: SARS-CoV-2 virus; assay type: cell-based; details: read-out: Reduction in infectious virus (EC50)

Row | SMILES | CPE inhibition (lowest concentration of the compound with 100% CPE inhibition) [1] [µM] | Antiviral effect against SARS-CoV-2 virus in vitro (in words) [2] | further results
1 | CN[C@H]1C(=O)N[C@@H]2Cc3ccc(cc3)Oc3cc4cc(c3O[C@@H]3O[C@H](C(=O)O)[C@@H](O)[C@H](O)[C@H]3NC(=O)CCCCCCCCC(C)C)Oc3ccc(cc3Cl)[C@@H](O)[C@@H]3NC(=O)[C@H](NC(=O)[C@@H]4NC(=O)[C@@H](NC2=O)c2cc(cc(O)c2Cl)Oc2cc1ccc2O)c1ccc(O)c(c1)-c1c(O[C@H]2O[C@H](CO)[C@@H](O)[C@H](O)[C@@H]2O)cc(O)cc1[C@@H](C(=O)NCCCN(C)C)NC3=O.Cl [Dalbavancin hydrochloride] | >100 |  | 
2 | NC(=O)c1nc(F)c[nH]c1=O [Favipiravir] |  | no apparent antiviral effect; also recorded: did not inhibit viral replication | Inhibition of SARS-CoV-2 (in words) [2]: no inhibition
3 | Nc1nc(F)nc2c1ncn2[C@@H]1O[C@H](COP(=O)(O)O)[C@@H](O)[C@@H]1O [Fludarabine phosphate] |  | did not inhibit viral replication | 
4 | Nc1ncnc2c([C@@H]3N[C@H](CO)[C@@H](O)[C@H]3O)c[nH]c12 [Galidesivir] |  | did not inhibit viral replication | 
5 | CN[C@H](CC(C)C)C(=O)N[C@H]1C(=O)N[C@@H](CC(N)=O)C(=O)N[C@H]2C(=O)N[C@H]3C(=O)N[C@H](C(=O)N[C@H](C(=O)O)c4cc(O)cc(O)c4-c4cc3ccc4O)[C@H](O[C@H]3C[C@](C)(N)[C@@H](O)[C@H](C)O3)c3ccc(c(Cl)c3)Oc3cc2cc(c3O[C@@H]2O[C@H](CO)[C@@H](O)[C@H](O)[C@H]2O[C@H]2C[C@](C)(NCc3ccc(-c4ccc(Cl)cc4)cc3)[C@@H](O)[C@H](C)O2)Oc2ccc(cc2Cl)[C@H]1O.O=P(O)(O)O.O=P(O)(O)O [Oritavancin diphosphate] | >100 |  | 
6 | CCC(CC)O[C@@H]1C=C(C(=O)O)C[C@H](N)[C@H]1NC(C)=O [Oseltamivir carboxylate] | >100 | no apparent antiviral effect | CC50 [3]: > 100 µM; EC50 [4]: > 100 µM; EC50 [5]: > 100 µM
7 | [N-]=[N+]=N[C@]1(CO)O[C@@H](n2ccc(N)nc2=O)[C@H](O)[C@@H]1O [R-1479] | >100 | did not inhibit viral replication | CC50 [3]: > 100 µM
8 | NC(=O)c1ncn([C@@H]2O[C@H](CO)[C@@H](O)[C@H]2O)n1 [Ribavirin] |  | no apparent antiviral effect; also recorded: did not inhibit viral replication | Inhibition of SARS-CoV-2 (in words) [2]: no inhibition
9 | C[C@H](Cn1cnc2c(N)ncnc21)OCP(=O)(O)O [Tenofovor] |  | did not inhibit viral replication | 
